According to patent US20240182481A1 (Tango Therapeutics, Inc., priority 2021, published 2024):

Experiments:
USP1-UAF1 = USP1-UAF1 (Homo sapiens, UniProt O94782); assay: Ubiquitin Rhodamine assay for USP1-UAF1 activity; assay type: biochemical
Method: Certain compounds of the disclosure were assessed for USP1-UAF1 activity in a Ubiquitin Rhodamine assay as described in Example 135.

[1] = system: MDA-MB-436 (BRCA1 mutant) cell line; assay: Viability assay in BRCA1 mutant cell line MDA-MB-436; assay type: cell-based; conditions: Homo sapiens, MDA-MB-436, viability, BRCA1 mutant MDA-MB-436; read-out: MDA-MB-436 rel IC50
Text: (§1) Table 1 also indicates IC50 values in a viability assay for a non-isogenic pair of BRCA1 mutant (column 5—MDA-MB-436) and BRCA1 WT (column 6—HCC1954) cell lines. These values indicate the effect of treatment with compound on cell survival.

monoubiquitinated PCNA = assay: AlphaLISA assay measuring monoubiquitinated PCNA in MDA-MB-436; assay type: cell-based; conditions: Homo sapiens, read-out: Alpha LISA IC50
Text: Table 1 also indicates IC50 values for exemplary compounds in an AlphaLISA assay measuring monoubiquitinated PCNA in a BRCA1 mutant cell line (MDA-MB-436; column 7).

[2] = system: HCC1954 (BRCA1 WT) cell line; assay: Viability assay in BRCA1 WT cell line HCC1954; assay type: cell-based; conditions: Homo sapiens, read-out: HCC 1954 IC50 rel IC50
Text: as §1

Sequence of USP1-UAF1 (O94782 whole entry): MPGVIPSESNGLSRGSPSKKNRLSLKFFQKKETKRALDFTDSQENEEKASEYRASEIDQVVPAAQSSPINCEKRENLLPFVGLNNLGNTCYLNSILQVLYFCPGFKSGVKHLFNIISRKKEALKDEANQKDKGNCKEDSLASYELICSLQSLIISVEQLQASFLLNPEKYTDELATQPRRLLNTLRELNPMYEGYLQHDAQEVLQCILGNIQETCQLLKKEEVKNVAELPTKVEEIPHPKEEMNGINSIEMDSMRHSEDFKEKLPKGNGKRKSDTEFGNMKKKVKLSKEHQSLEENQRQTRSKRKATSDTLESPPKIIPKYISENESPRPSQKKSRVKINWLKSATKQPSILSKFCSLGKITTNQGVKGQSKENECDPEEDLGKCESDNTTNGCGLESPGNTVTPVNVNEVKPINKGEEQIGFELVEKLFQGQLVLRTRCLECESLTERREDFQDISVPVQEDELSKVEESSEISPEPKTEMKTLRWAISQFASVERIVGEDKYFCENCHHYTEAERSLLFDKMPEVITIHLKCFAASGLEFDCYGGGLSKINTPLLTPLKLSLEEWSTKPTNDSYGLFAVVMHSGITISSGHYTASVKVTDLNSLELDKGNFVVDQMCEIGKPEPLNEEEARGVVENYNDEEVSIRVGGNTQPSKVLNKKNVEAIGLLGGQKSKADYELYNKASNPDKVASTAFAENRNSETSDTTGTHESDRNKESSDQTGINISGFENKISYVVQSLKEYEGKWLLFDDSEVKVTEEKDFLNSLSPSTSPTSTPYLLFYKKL
Sequence of USP1-UAF1 (Q8TAF3 whole entry partner): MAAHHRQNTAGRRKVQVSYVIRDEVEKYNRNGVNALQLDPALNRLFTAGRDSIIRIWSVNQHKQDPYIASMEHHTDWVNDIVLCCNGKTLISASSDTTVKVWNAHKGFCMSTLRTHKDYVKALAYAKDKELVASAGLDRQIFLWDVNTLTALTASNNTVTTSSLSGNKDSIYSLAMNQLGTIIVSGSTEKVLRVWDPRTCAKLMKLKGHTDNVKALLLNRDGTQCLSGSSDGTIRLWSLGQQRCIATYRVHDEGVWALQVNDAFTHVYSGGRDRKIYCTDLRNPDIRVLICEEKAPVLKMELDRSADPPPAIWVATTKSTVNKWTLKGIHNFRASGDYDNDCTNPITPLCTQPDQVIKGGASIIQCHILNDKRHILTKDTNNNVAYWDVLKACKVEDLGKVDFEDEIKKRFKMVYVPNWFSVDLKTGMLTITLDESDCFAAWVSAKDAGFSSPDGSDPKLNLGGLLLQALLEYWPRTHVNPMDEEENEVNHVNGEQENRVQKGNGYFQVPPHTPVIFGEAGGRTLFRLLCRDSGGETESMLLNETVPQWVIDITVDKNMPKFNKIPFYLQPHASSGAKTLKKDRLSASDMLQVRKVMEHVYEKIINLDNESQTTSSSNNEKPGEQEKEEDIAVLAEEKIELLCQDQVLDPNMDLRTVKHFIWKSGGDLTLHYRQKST

SMILES | IC50 (USP1-UAF1) [nM] | IC50 [1] [nM] | IC50 (monoubiquitinated PCNA) [nM] | IC50 [2] [µM]
CN(C)c1ncccc1-c1ncc2[nH]cc(Cc3ccc(-c4nc(C(F)(F)F)cn4C)cc3)c2n1 [Compound 29, N,N-dimethyl-3-[7-[[4-[1-methyl-4-(trifluoromethyl)imidazol-2-yl]phenyl]methyl]-5H-pyrrolo[3,2-d]pyrimidin-2-yl]pyridin-2-amine] | 100 to 10000 | 250 to 10000 | 250 to 10000 | ≥ 10
COc1ncnc(C2CC2)c1-c1ncc2[nH]cc(Cc3ccc(-c4nc(C#N)cn4C)cc3)c2n1 [Compound 31, 2-[4-[[2-(4-cyclopropyl-6-methoxy-pyrimidin-5-yl)-5H-pyrrolo[3,2-d]pyrimidin-7-yl]methyl]phenyl]-1-methyl-imidazole-4-carbonitrile] | 100 to 10000 | 250 to 10000 | 250 to 10000 | ≥ 10
CCn1cc(C(F)(F)F)nc1-c1ccc(C(O)c2c[nH]c3cnc(-c4c(OC)ncnc4C4CC4)nc23)cc1 (stereo not shown) [Compound 33] | 100 to 10000 | 250 to 10000 | 250 to 10000 | ≥ 10
Cn1cc(C(F)(F)F)nc1-c1ccc(Cc2c[nH]c3cnc(-c4cccnc4OC4CC4)nc23)cc1 [Compound 41, 2-cyclopropoxy-3-[7-([4-[1-methyl-4-(trifluoromethyl)imidazol-2-yl]phenyl]methyl)-5H-pyrrolo[3,2-d]pyrimidin-2-yl]pyridine] | 30 to 100 | 100 to 250 | < 100 | ≥ 10
COc1ncnc(C2CC2)c1-c1ncc2[nH]nc(Cc3ccc(-c4nc(C#N)cn4C)cc3)c2n1 [Compound 45, 2-[4-[[5-(4-cyclopropyl-6-methoxy-pyrimidin-5-yl)-1H-pyrazolo[4,3-d]pyrimidin-3-yl]methyl]phenyl]-1-methyl-imidazole-4-carbonitrile] | 100 to 10000 | 250 to 10000 | 250 to 10000 | ≥ 10
COc1ncnc(C2CC2)c1-c1ncc2[nH]cc(C3(c4ccc(-c5nc(C(F)(F)F)cn5C)cc4)CC3)c2n1 [Compound 47, 2-(4-cyclopropyl-6-methoxy-pyrimidin-5-yl)-7-[1-[4-[1-methyl-4-(trifluoromethyl)imidazol-2-yl]phenyl]cyclopropyl]-5H-pyrrolo[3,2-d]pyrimidine] | 30 to 100 | 250 to 10000 | 100 to 250 | ≥ 10

The next lines start with the values.

IC50 (USP1-UAF1) [nM] | IC50 [1] [nM] | IC50 (monoubiquitinated PCNA) [nM] | IC50 [2] [µM] | SMILES
< 30 | < 100 | < 100 | 0.25 to 10 | COc1ncnc(C2CC2)c1-c1cc2c(Cc3ccc(-c4nc(C(F)(F)F)cn4C)cc3)c[nH]c2cn1 [Compound 23, 5-(4-cyclopropyl-6-methoxy-pyrimidin-5-yl)-3-[[4-[1-methyl-4-(trifluoromethyl)imidazol-2-yl]phenyl]methyl]-1H-pyrrolo[2,3-c]pyridine]
< 30 | < 100 | < 100 | ≥ 10 | CC(C)c1ccccc1-c1ncc2[nH]nc(Cc3ccc(-c4nc(C(F)(F)F)cn4C)cc3)c2n1 [Compound 27, 5-(2-isopropylphenyl)-3-[[4-[1-methyl-4-(trifluoromethyl)imidazol-2-yl]phenyl]methyl]-1H-pyrazolo[4,3-d]pyrimidine]
30 to 100 | < 100 | 100 to 250 | ≥ 10 | CC(C)n1cc(C(F)(F)F)nc1-c1ccc(Cc2c[nH]c3cnc(-c4cccnc4OC(F)F)nc23)cc1 [Compound 28, 2-[2-(difluoromethoxy)-3-pyridyl]-7-[[4-[1-isopropyl-4-(trifluoromethyl)imidazol-2-yl]phenyl]methyl]-5H-pyrrolo[3,2-d]pyrimidine]
30 to 100 | 100 to 250 | 100 to 250 | ≥ 10 | CCCOc1ncccc1-c1ncc2[nH]cc(Cc3ccc(-c4nc(C(F)(F)F)cn4C)cc3)c2n1 [Compound 34, 7-[[4-[1-methyl-4-(trifluoromethyl)imidazol-2-yl]phenyl]methyl]-2-(2-propoxy-3-pyridyl)-5H-pyrrolo[3,2-d]pyrimidine]
